Assay results as given in patent publication US7723368B2, “Amino-5-[4-(difluoromethoxy)phenyl]-5-phenylimidazolone compounds for the inhibition of beta-secretase” (Wyeth LLC, priority 2007, dated 2010).

The molecules below were run against human BACE1 (Homo sapiens, UniProt P56817) (assay: BACE1 fluorescent kinetic assay (cleavage of peptide substrate WABC-6)). Conditions: Activity Table, Examples 1-108; 10 nM enzyme, 25 μM substrate WABC-6, pH 4.5, room temperature.
Type: biochemical
Experimental: Evaluation of BACE1 Binding Affinity of Test Compounds
Fluorescent Kinetic Assays
Dilution and mixing steps: total reaction volume: 100 μL
100 μM substrate dilution in 1×PBS was prepared, and
Fluorescence Readings: Readings at λex 320 nm and λem 420 nm are taken every 40 sec for 30 min at room temperature and the linear slope for substrate cleavage rate (vi) determined.

Sequence of human BACE1 (P56817 46-501): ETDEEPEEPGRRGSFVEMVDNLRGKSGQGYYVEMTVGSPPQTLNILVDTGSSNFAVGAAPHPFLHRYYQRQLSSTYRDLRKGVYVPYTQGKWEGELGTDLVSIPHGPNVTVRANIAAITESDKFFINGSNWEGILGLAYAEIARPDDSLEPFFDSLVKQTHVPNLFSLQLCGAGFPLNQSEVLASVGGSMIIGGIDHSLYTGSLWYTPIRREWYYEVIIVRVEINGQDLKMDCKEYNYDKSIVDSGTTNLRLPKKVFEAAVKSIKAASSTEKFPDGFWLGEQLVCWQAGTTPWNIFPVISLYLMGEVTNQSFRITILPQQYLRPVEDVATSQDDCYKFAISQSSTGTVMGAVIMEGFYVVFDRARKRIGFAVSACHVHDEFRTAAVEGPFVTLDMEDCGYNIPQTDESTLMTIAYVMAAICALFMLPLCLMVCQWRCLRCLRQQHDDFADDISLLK

Row | SMILES | IC50 [nM]
1 | CC(C)Nc1cccc(C2(c3ccc(OC(F)F)cc3)N=C(N)N(C)C2=O)c1 (centres unmarked) [Example 46] | 110 to 1000
2 | CC(C)=CC(=O)Nc1cccc(C2(c3ccc(OC(F)F)cc3)N=C(N)N(C)C2=O)c1 (centres unmarked) [Example 31] | > 1000
3 | C=CC[C@@H](C)Oc1cccc([C@@]2(c3ccc(OC(F)F)cc3)N=C(N)N(C)C2=O)c1 [Example 10D, (R)-2-amino-4-(4-(difluoromethoxy)phenyl)-1-methyl-4-(3-((R)-pent-4-en-2-yloxy)phenyl)-1H-imidazol-5(4H)-one] | < 100
4 | CCOCCC#Cc1cccc(C2(c3ccc(OC(F)F)cc3)N=C(N)N(C)C2=O)c1 (centres unmarked) [Example 96, 2-Amino-5-[4-(difluoromethoxy)phenyl]-5-[3-(4-ethoxybut-1-yn-1-yl)phenyl]-3-methyl-3,5-dihydro-4H-imidazol-4-one] | < 100
5 | CCCCNc1cccc(C2(c3ccc(OC(F)F)cc3)N=C(N)N(C)C2=O)c1 (centres unmarked) [Example 44] | < 100
6 | CCCC(=O)Nc1cccc(C2(c3ccc(OC(F)F)cc3)N=C(N)N(C)C2=O)c1 (centres unmarked) [Example 22] | 110 to 1000
7 | CN1C(=O)C(c2ccc(OC(F)F)cc2)(c2cccc(NCc3ccco3)c2)N=C1N (centres unmarked) [Example 51] | < 100
8 | C=CCCOc1cccc(C2(c3ccc(OC(F)F)cc3)N=C(N)N(C)C2=O)c1 (centres unmarked) [Example 8, 2-amino-5-[3-(but-3-en-1-yloxy)phenyl]-5-[4-(difluoromethoxy)-phenyl]-3-methyl-3,5-dihydro-4H-imidazol-4-one] | < 100
9 | C/C=C\c1cc([C@]2(c3ccc(OC(F)F)cc3)N=C(N)N(C)C2=O)ccc1F [Example 76A, (5S)-2-amino-5-[4-(difluoromethoxy)phenyl]-5-{4-fluoro-3-[(1Z)-prop-1-en-1-yl]phenyl}-3-methyl-3,5-dihydro-4H-imidazol-4-one] | > 1000
10 | CN1C(=O)C(c2ccc(OC(F)F)cc2)(c2cccc(C#CCCCCl)c2)N=C1N (centres unmarked) [Example 20B, 2-amino-5-[3-(5-chloropent-1-yn-1-yl)-phenyl]-5-[4-(difluoromethoxy)phenyl]-3-methyl-3,5-dihydro-4H-imidazol-4-one] | < 100
11 | CN1C(=O)C(c2ccc(OC(F)F)cc2)(c2cccc(NC(=O)c3ccco3)c2)N=C1N (centres unmarked) [Example 33] | < 100
12 | CN1C(=O)C(c2ccc(OC(F)F)cc2)(c2cccc(C3CC(CCF)C3)c2)N=C1N (centres unmarked) [Example 58, 2-amino-5-[4-(difluoromethoxy)phenyl]-5-{3-[3-(2-fluoroethyl)cyclobutyl]phenyl}-3-methyl-3,5-dihydro-4H-imidazol-4-one] | 110 to 1000
13 | CN1C(=O)C(c2ccc(OC(F)F)cc2)(c2cccc(CN3CCCC3)c2)N=C1N (centres unmarked) [Example 66, 2-amino-5-[4-(difluoromethoxy)phenyl]-3-methyl-5-[3-(pyrrolidin-1-ylmethyl)phenyl]-3,5-dihydro-4H-imidazol-4-one] | > 1000
14 | C=CC(C)COc1cccc([C@@]2(c3ccc(OC(F)F)cc3)N=C(N)N(C)C2=O)c1 (stereo partly drawn) [Example 10F, (4R)-2-amino-4-(4-(difluoromethoxy)phenyl)-1-methyl-4-(3-(2-methylbut-3-enyloxy)phenyl)-1H-imidazol-5(4H)-one] | < 100
15 | C=CCCOc1cccc([C@@]2(c3ccc(OC(F)F)cc3)N=C(N)N(C)C2=O)c1 [Example 10A, (5R)-2-amino-5-[3-(but-3-en-1-yloxy)phenyl]-5-[4-(difluoromethoxy)phenyl]-3-methyl-3,5-dihydro-4H-imidazol-4-one] | < 100
16 | CN1C(=O)C(c2ccc(OC(F)F)cc2)(c2ccc(OC(F)F)cc2)N=C1N [Example 67, 2-amino-5,5-bis[4-(difluoromethoxy)phenyl]-3-methyl-3,5-dihydro-4H-imidazol-4-one] | > 1000
17 | CN1C(=O)C(c2ccc(OC(F)F)cc2)(c2cccc(NC(=O)c3sccc3Br)c2)N=C1N (centres unmarked) [Example 39] | < 100
18 | Cc1cccc(C2(c3ccc(OC(F)F)cc3)N=C(N)N(C)C2=O)c1 (centres unmarked) [Example 95, 2-Amino-5-[4-(difluoromethoxy)phenyl]-3-methyl-5-(3-methylphenyl)-3,5-dihydro-4H-imidazol-4-one] | 110 to 1000
19 | C/C=C/c1cc([C@@]2(c3ccc(OC(F)F)cc3)N=C(N)N(C)C2=O)ccc1F [Example 77B, (5R)-2-amino-5-[4-(difluoromethoxy)phenyl]-5-{4-fluoro-3-[(1E)-prop-1-en-1-yl]phenyl}-3-methyl-3,5-dihydro-4H-imidazol-4-one] | < 100
20 | CN1C(=O)C(c2ccc(OC(F)F)cc2)(c2cccc(NC3CCC3)c2)N=C1N (centres unmarked) [Example 50] | 110 to 1000
21 | CN1C(=O)[C@@](c2ccc(OC(F)F)cc2)(c2ccc(F)c(C#CCF)c2)N=C1N [Example 107, (5R)-2-amino-5-[4-(difluoromethoxy)phenyl]-5-[4-fluoro-3-(3-fluoroprop-1-yn-1-yl)phenyl]-3-methyl-3,5-dihydro-4H-imidazol-4-one] | < 100
22 | C/C=C\c1cc([C@@]2(c3ccc(OC(F)F)cc3)N=C(N)N(C)C2=O)ccc1F [Example 76B, (5R)-2-amino-5-[4-(difluoromethoxy)phenyl]-5-{4-fluoro-3-[(1Z)-prop-1-en-1-yl]phenyl}-3-methyl-3,5-dihydro-4H-imidazol-4-one] | > 1000
23 | CN1C(=O)[C@@](c2ccc(OC(F)F)cc2)(c2cccc(C#CCCCF)c2)N=C1N [Example 19E, (5R)-2-amino-5-[4-(difluoromethoxy)phenyl]-5-[3-(5-fluoropent-1-yn-1-yl)phenyl]-3-methyl-3,5-dihydro-4H-imidazol-4-one] | < 100
24 | CN1C(=O)C(c2ccc(OC(F)F)cc2)(c2cccc(NC(=O)C3CC3)c2)N=C1N (centres unmarked) [Example 28] | 110 to 1000
25 | CN1C(=O)[C@@](c2ccc(OC(F)F)cc2)(c2ccc(F)c(C#CCCF)c2)N=C1N [Example 104, (5R)-2-amino-5-[4-(difluoromethoxy)phenyl]-5-[4-fluoro-3-(4-fluorobut-1-yn-1-yl)phenyl]-3-methyl-3,5-dihydro-4H-imidazol-4-one] | < 100
26 | CN1C(=O)C(c2ccc(OC(F)F)cc2)(c2cccc(C3CC(=CCO)C3)c2)N=C1N (centres unmarked) [Example 56, 2-amino-5-[4-(difluoromethoxy)phenyl]-5-{3-[3-(2-hydroxyethylidene)cyclobutyl]phenyl}-3-methyl-3,5-dihydro-4H-imidazol-4-one] | > 1000
27 | C=CC[C@@H](C)c1cccc(C2(c3ccc(OC(F)F)cc3)N=C(N)N(C)C2=O)c1 (stereo partly drawn) [Example 69, 2-amino-4-(4-(difluoromethoxy)phenyl)-1-methyl-4-(3-((R)-pent-4-en-2-yl)phenyl)-1H-imidazol-5(4H)-one] | 110 to 1000
28 | CN1C(=O)C(c2ccc(OC(F)F)cc2)(c2ccc(F)c(OCCC(F)F)c2)N=C1N (centres unmarked) [Example 92, 2-Amino-5-[4-(difluoromethoxy)phenyl]-5-[3-(3,3-difluoropropoxy)-4-fluorophenyl]-3-methyl-3,5-dihydro-4H-imidazol-4-one] | < 100
29 | CC(C)NCc1cccc(C2(c3ccc(OC(F)F)cc3)N=C(N)N(C)C2=O)c1 (centres unmarked) [Example 61, 2-Amino-5-(4-difluoromethoxy-phenyl)-5-[3-(isopropylamino-methyl)-phenyl]-3-methyl-3,5-dihydro-imidazol-4-one] | 110 to 1000
30 | Cc1cccc(C2(c3ccc(OC(F)F)cc3)N=C(N)N(C)C2=O)c1 (centres unmarked) [Example 74, 2-Amino-5-[4-(difluoromethoxy)phenyl]-3-methyl-5-(3-methylphenyl)-3,5-dihydro-4H-imidazol-4-one] | 110 to 1000

Same assay, conditions: Examples 109-141; 10 nM enzyme, 25 μM substrate WABC-6, pH 4.5, room temperature

Row | SMILES | IC50 [nM]
31 | CC(=O)Nc1cccc(C2(c3ccc(OC(F)F)cc3)N=C(N)N(C)C2=O)c1 (centres unmarked) [Example 116, N-(3-{2-amino-4-[4-(difluoromethoxy)phenyl]-1-methyl-5-oxo-4,5-dihydro-1H-imidazol-4-yl}phenyl)acetamide] | 110 to 1000
32 | CN1C(=O)C(c2ccc(OC(F)F)cc2)(c2cccc(N)c2)N=C1N (centres unmarked) [Example 115, 2-amino-5-(3-aminophenyl)-5-[4-(difluoromethoxy)phenyl]-3-methyl-3,5-dihydro-4H-imidazol-4-one] | > 1000
33 | CC(C)Oc1cc(C2(c3ccc(OC(F)F)cc3)N=C(N)N(C)C2=O)ccc1F (centres unmarked) [Example 136, 2-amino-5-[4-(difluoromethoxy)phenyl]-5-(4-fluoro-3-isopropoxyphenyl)-3-methyl-3,5-dihydro-4H-imidazol-4-one] | 110 to 1000
34 | COCCCC/C=C/c1cccc([C@@]2(c3ccc(OC(F)F)cc3)N=C(N)N(C)C2=O)c1 [Example 129, (R,E)-2-amino-4-(4-(difluoromethoxy)phenyl)-4-(3-(6-methoxyhex-1-enyl)phenyl)-1-methyl-1H-imidazol-5(4H)-one] | < 100
35 | CCOCCC(C)c1cccc(C2(c3ccc(OC(F)F)cc3)N=C(N)N(C)C2=O)c1 (centres unmarked) [Example 112, 2-amino-5-[4-(difluoromethoxy)phenyl]-5-[3-(3-ethoxy-1-methylpropyl)phenyl]-3-methyl-3,5-dihydro-4H-imidazol-4-one] | > 1000
36 | COCCC(C)c1cccc(C2(c3ccc(OC(F)F)cc3)N=C(N)N(C)C2=O)c1 (centres unmarked) [Example 111, 2-amino-5-[4-(difluoromethoxy)phenyl]-5-[3-(3-methoxy-1-methylpropyl)phenyl]-3-methyl-3,5-dihydro-4H-imidazol-4-one] | > 1000
37 | CN1C(=O)C(c2ccc(OC(F)F)cc2)(c2cccc(NC(=O)c3ccc4c(c3)CCO4)c2)N=C1N (centres unmarked) [Example 117, N-(3-{2-amino-4-[4-(difluoromethoxy)phenyl]-1-methyl-5-oxo-4,5-dihydro-1H-imidazol-4-yl}phenyl)-2,3-dihydro-1-benzofuran-5-carboxamide] | < 100
38 | CN1C(=O)[C@@](c2ccc(OC(F)F)cc2)(c2ccc(F)c(/C=C/CCF)c2)N=C1N [Example 140, (5R)-2-amino-5-[4-(difluoromethoxy)phenyl]-5-{4-fluoro-3-[(1E)-4-fluorobut-1-en1-yl]phenyl}-3-methyl-3,5-dihydro-4H-imidazol-4-one] | > 1000
